The source of these data is patent US9771369B2, “Compounds and methods for kinase modulation, and indications therefor” (Plexxikon Inc., priority 2014, dated 2017).

Bounds are passed on as bounds.

For one experiment, the target named is c-Kit kinase (Homo sapiens (Human), UniProt P10721). The experiment is described as follows: c-Kit biochemical assay (AlphaScreen kinase activity). A digest of the protocol:
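IC50 values come from 8-point, 1:3 compound titrations measuring inhibition of peptide phosphorylation by c-Kit (commercial or His-tagged E. coli-expressed) over 1 h at room temperature, read by AlphaScreen PY30/streptavidin beads. Low-ATP version: 10 μM ATP, 100 nM biotin-(E4Y)3; high-ATP version: 100 μM ATP, 30 nM biotin-(E4Y)10.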
(Alpha assays give light when donor and acceptor beads are brought close together.)

The test system of experiment [1] is BaF3-FL KIT D816V or BaF3-FL KIT V560G/D816V cell line. The experiment is described as follows: Cell-based assays of c-Kit mutant kinase activity (cell proliferation, ATPlite). Particulars: at least one of the c-kit cell assays of Example 7. In short, it runs like this: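 BaF3 cells dependent on transfected full-length human KIT D816V or V560G/D816V (pCI-Neo, CMV promoter) were seeded at 1×10^4 cells/well and exposed to 8-point 1:3 dilutions from 10 μM top (0.2% DMSO) for three days at 37° C. ATPlite luminescence gave cell number; IC50 from concentration-response.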
In general terms: ATP-based viability assays read luminescence as a measure of living cells.

Chain of c-Kit kinase (P10721 26-976): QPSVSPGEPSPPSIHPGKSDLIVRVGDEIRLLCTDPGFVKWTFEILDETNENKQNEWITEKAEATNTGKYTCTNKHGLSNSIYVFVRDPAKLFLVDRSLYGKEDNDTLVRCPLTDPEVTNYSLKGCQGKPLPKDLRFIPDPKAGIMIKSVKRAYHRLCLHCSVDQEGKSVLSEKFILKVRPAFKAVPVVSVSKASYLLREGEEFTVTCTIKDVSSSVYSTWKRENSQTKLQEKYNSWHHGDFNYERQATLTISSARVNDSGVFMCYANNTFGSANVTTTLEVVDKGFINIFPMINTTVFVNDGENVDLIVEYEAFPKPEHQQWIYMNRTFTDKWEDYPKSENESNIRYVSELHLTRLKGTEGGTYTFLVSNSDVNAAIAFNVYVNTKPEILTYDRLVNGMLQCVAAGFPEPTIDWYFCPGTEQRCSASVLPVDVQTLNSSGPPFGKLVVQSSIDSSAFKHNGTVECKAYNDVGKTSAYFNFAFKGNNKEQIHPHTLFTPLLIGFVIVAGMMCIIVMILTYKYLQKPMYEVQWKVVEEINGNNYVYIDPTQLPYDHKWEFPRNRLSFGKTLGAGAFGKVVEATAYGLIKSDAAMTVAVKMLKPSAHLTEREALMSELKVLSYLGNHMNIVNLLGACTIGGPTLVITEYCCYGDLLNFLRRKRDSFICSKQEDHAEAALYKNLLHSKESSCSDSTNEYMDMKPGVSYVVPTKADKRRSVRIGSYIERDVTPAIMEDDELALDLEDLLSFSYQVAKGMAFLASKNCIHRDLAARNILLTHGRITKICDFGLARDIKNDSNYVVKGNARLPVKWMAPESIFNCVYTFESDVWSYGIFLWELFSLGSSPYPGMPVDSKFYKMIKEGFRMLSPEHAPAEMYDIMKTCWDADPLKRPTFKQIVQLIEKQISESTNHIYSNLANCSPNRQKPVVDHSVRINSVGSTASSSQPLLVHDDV

As for `Cc1nc(C2CCN(c3ncnc4[nH]c(-c5ccc(F)cc5)cc34)CC2)[nH]c1-c1ccc(Cl)s1` [P-3119, 4-[4-[5-(5-chloro-2-thienyl)-4-methyl-1H-imidazol-2-yl]-1-piperidyl]-6-(4-fluorophenyl)-7H-pyrrolo[2,3-d]pyrimidine], the IC50 was 1 to 10 µM at c-Kit kinase and under 10 µM in experiment [1].

Take `Cc1cc2c(N3CCC(c4nc(C)c(-c5ccc6c(c5)OCO6)[nH]4)CC3)ncnc2[nH]1` [P-3120, 4-[4-[5-(1,3-benzodioxol-5-yl)-4-methyl-1H-imidazol-2-yl]-1-piperidyl]-6-methyl-7H-pyrrolo[2,3-d]pyrimidine]: the results for the IC50 (at c-Kit kinase; in experiment [1]) were 1 to 10 µM and under 10 µM, respectively.

`Cc1cc2c(N3CCC(c4nc(C)c(-c5ccc6c(c5)OCCO6)[nH]4)CC3)ncnc2[nH]1` [P-3121, 4-[4-[5-(2,3-dihydro-1,4-benzodioxin-6-yl)-4-methyl-1H-imidazol-2-yl]-1-piperidyl]-6-methyl-7H-pyrrolo[2,3-d]pyrimidine]: the IC50 was 1 to 10 µM at c-Kit kinase and under 10 µM in experiment [1].

Take `Cc1nn(C)cc1-c1cc2c(N3CCC(c4nc(C)c(-c5ccc(OC(F)(F)F)cc5)[nH]4)CC3)ncnc2[nH]1` [P-3122, 6-(1,3-dimethylpyrazol-4-yl)-4-[4-[4-methyl-5-[4-(trifluoromethoxy)phenyl]-1H-imidazol-2-yl]-1-piperidyl]-7H-pyrrolo[2,3-d]pyrimidine]: the figures for the IC50 (at c-Kit kinase; in experiment [1]) were 0.0001 to 1 µM and under 10 µM, respectively.

Regarding `COc1cccc(-c2[nH]c(C3CCN(c4ncnc5[nH]c(-c6ccnc(OC)c6)cc45)CC3)nc2C(F)(F)F)c1` [P-3123, 4-[4-[5-(3-methoxyphenyl)-4-(trifluoromethyl)-1H-imidazol-2-yl]-1-piperidyl]-6-(2-methoxy-4-pyridyl)-7H-pyrrolo[2,3-d]pyrimidine], the IC50 was 0.0001 to 1 µM at c-Kit kinase and under 10 µM in experiment [1].

In the case of `COc1cccc(-c2[nH]c(C3CCN(c4ncnc5[nH]c(-c6ccc(C#N)cc6)cc45)CC3)nc2C(F)(F)F)c1` [P-3124, 4-[4-[4-[5-(3-methoxyphenyl)-4-(trifluoromethyl)-1H-imidazol-2-yl]-1-piperidyl]-7H-pyrrolo[2,3-d]pyrimidin-6-yl]benzonitrile], the IC50 was 0.0001 to 1 µM at c-Kit kinase and under 10 µM in experiment [1].

As to `CCOc1ccc(-c2[nH]c(C3CCN(c4ncnc5[nH]c(C)cc45)CC3)nc2C)cc1C` [P-3125, 4-[4-[5-(4-ethoxy-3-methyl-phenyl)-4-methyl-1H-imidazol-2-yl]-1-piperidyl]-6-methyl-7H-pyrrolo[2,3-d]pyrimidine], the IC50 against c-Kit kinase was 1 to 10 µM; in experiment [1] it was under 10 µM.

On to `CCOc1cc(-c2[nH]c(C3CCN(c4ncnc5[nH]c(C)cc45)CC3)nc2C)ccc1C` [P-3126, 4-[4-[5-(3-ethoxy-4-methyl-phenyl)-4-methyl-1H-imidazol-2-yl]-1-piperidyl]-6-methyl-7H-pyrrolo[2,3-d]pyrimidine], for which the IC50 against c-Kit kinase was 0.0001 to 1 µM; in experiment [1], under 10 µM.

In the case of `Cc1cc2c(N3CCC(c4nc(C)c(-c5ccc6c(c5)OC(F)(F)O6)[nH]4)CC3)ncnc2[nH]1` [P-3127, 4-[4-[5-(2,2-difluoro-1,3-benzodioxol-5-yl)-4-methyl-1H-imidazol-2-yl]-1-piperidyl]-6-methyl-7H-pyrrolo[2,3-d]pyrimidine], the IC50 was 1 to 10 µM at c-Kit kinase and under 10 µM in experiment [1].

As to `COc1ccc(-c2[nH]c(C3CCN(c4ncnc5[nH]c(C)cc45)CC3)nc2C)cc1C` [P-3128, 4-[4-[5-(4-methoxy-3-methyl-phenyl)-4-methyl-1H-imidazol-2-yl]-1-piperidyl]-6-methyl-7H-pyrrolo[2,3-d]pyrimidine], the IC50 on c-Kit kinase is 1 to 10 µM; in experiment [1], under 10 µM.

Consider `COc1cc(-c2[nH]c(C3CCN(c4ncnc5[nH]c(C)cc45)CC3)nc2C)ccc1C` [P-3129, 4-[4-[5-(3-methoxy-4-methyl-phenyl)-4-methyl-1H-imidazol-2-yl]-1-piperidyl]-6-methyl-7H-pyrrolo[2,3-d]pyrimidine], for which the IC50 on c-Kit kinase was 1 to 10 µM; in experiment [1], under 10 µM.

On to `COc1ccc(-c2[nH]c(C3CCN(c4ncnc5[nH]c(C)cc45)CC3)nc2C)cc1` [P-3130, 4-[4-[5-(4-methoxyphenyl)-4-methyl-1H-imidazol-2-yl]-1-piperidyl]-6-methyl-7H-pyrrolo[2,3-d]pyrimidine], for which the IC50 is 1 to 10 µM against c-Kit kinase and under 10 µM in experiment [1].

In the case of `COc1cccc(-c2[nH]c(C3CCN(c4ncnc5[nH]c(C)cc45)CC3)nc2C)c1` [P-3131, 4-[4-[5-(3-methoxyphenyl)-4-methyl-1H-imidazol-2-yl]-1-piperidyl]-6-methyl-7H-pyrrolo[2,3-d]pyrimidine], the IC50 was 1 to 10 µM against c-Kit kinase and under 10 µM in experiment [1].

Turning to `Cc1nc(C2CCN(c3ncnc4[nH]c(-c5ccc(C#N)cc5)cc34)CC2)[nH]c1-c1ccc2c(c1)OCCO2` [P-3132, 4-[4-[4-[5-(2,3-dihydro-1,4-benzodioxin-6-yl)-4-methyl-1H-imidazol-2-yl]-1-piperidyl]-7H-pyrrolo[2,3-d]pyrimidin-6-yl]benzonitrile], the IC50 is 0.0001 to 1 µM against c-Kit kinase and under 10 µM in experiment [1].

With `Cc1nc(C2CCN(c3ncnc4[nH]c(-c5cnn(C(F)F)c5)cc34)CC2)[nH]c1-c1ccc2c(c1)OCCO2` [P-3133, 6-[1-(difluoromethyl)pyrazol-4-yl]-4-[4-[5-(2,3-dihydro-1,4-benzodioxin-6-yl)-4-methyl-1H-imidazol-2-yl]-1-piperidyl]-7H-pyrrolo[2,3-d]pyrimidine], the IC50 is 0.0001 to 1 µM at c-Kit kinase and under 10 µM in experiment [1].

For `COc1cc(-c2cc3c(N4CCC(c5nc(C(F)(F)F)c(-c6ccc(C)cc6)[nH]5)CC4)ncnc3[nH]2)ccn1` [P-3134, 6-(2-methoxy-4-pyridyl)-4-[4-[5-(p-tolyl)-4-(trifluoromethyl)-1H-imidazol-2-yl]-1-piperidyl]-7H-pyrrolo[2,3-d]pyrimidine], the IC50 against c-Kit kinase was 0.0001 to 1 µM; in experiment [1], under 10 µM.

Regarding `Cc1ccc(-c2[nH]c(C3CCN(c4ncnc5[nH]c(-c6ccc(F)cc6)cc45)CC3)nc2C(F)(F)F)cc1` [P-3135, 6-(4-fluorophenyl)-4-[4-[5-(p-tolyl)-4-(trifluoromethyl)-1H-imidazol-2-yl]-1-piperidyl]-7H-pyrrolo[2,3-d]pyrimidine], the IC50 is 0.0001 to 1 µM on c-Kit kinase and under 10 µM in experiment [1].

`Cc1nc(C2CCN(c3ncnc4[nH]c(-c5ccc(F)cc5)cc34)CC2)[nH]c1-c1ccc(C(F)(F)F)cc1` [P-3136, 6-(4-fluorophenyl)-4-[4-[4-methyl-5-[4-(trifluoromethyl)phenyl]-1H-imidazol-2-yl]-1-piperidyl]-7H-pyrrolo[2,3-d]pyrimidine]: the IC50 was 1 to 10 µM against c-Kit kinase and under 10 µM in experiment [1].

On to `Cc1nc(C2CCN(c3ncnc4[nH]c(-c5ccc(C#N)cc5)cc34)CC2)[nH]c1-c1ccc(C(F)(F)F)cc1` [P-3137, 4-[4-[4-[4-methyl-5-[4-(trifluoromethyl)phenyl]-1H-imidazol-2-yl]-1-piperidyl]-7H-pyrrolo[2,3-d]pyrimidin-6-yl]benzonitrile], for which the IC50 against c-Kit kinase was 1 to 10 µM; in experiment [1], under 10 µM.

For the compound `Cc1nc(C2CCN(c3ncnc4[nH]c(-c5cnn(C(F)F)c5)cc34)CC2)[nH]c1-c1ccc2c(c1)OCO2` [P-3138, 4-[4-[5-(1,3-benzodioxol-5-yl)-4-methyl-1H-imidazol-2-yl]-1-piperidyl]-6-[1-(difluoromethyl)pyrazol-4-yl]-7H-pyrrolo[2,3-d]pyrimidine], the values for the IC50 (at c-Kit kinase; in experiment [1]) were 0.0001 to 1 µM and under 10 µM, respectively.

Take `CCOc1ccc(-c2[nH]c(C3CCN(c4ncnc5[nH]c(-c6cnn(C(F)F)c6)cc45)CC3)nc2C)cc1C` [P-3139, 6-[1-(difluoromethyl)pyrazol-4-yl]-4-[4-[5-(4-ethoxy-3-methyl-phenyl)-4-methyl-1H-imidazol-2-yl]-1-piperidyl]-7H-pyrrolo[2,3-d]pyrimidine]: the results for the IC50 (at c-Kit kinase; in experiment [1]) were 0.0001 to 1 µM and under 10 µM, respectively.

On to `CCC1(c2nc(C)c(-c3ccc(OC)cc3)[nH]2)CCN(c2ncnc3[nH]c(C)cc23)CC1` [P-3140, 4-[4-ethyl-4-[5-(4-methoxyphenyl)-4-methyl-1H-imidazol-2-yl]-1-piperidyl]-6-methyl-7H-pyrrolo[2,3-d]pyrimidine], for which the IC50 at c-Kit kinase is 1 to 10 µM; in experiment [1], under 10 µM.

Consider `CCC1(c2nc(C)c(-c3ccc(OC)c(C)c3)[nH]2)CCN(c2ncnc3[nH]c(C)cc23)CC1` [P-3141, 4-[4-ethyl-4-[5-(4-methoxy-3-methyl-phenyl)-4-methyl-1H-imidazol-2-yl]-1-piperidyl]-6-methyl-7H-pyrrolo[2,3-d]pyrimidine], for which the values for the half-inhibitory concentration (IC50) (on c-Kit kinase; in experiment [1]) were 1 to 10 µM and under 10 µM, respectively.

As for `CCOc1ccc(-c2[nH]c(C3(CC)CCN(c4ncnc5[nH]c(C)cc45)CC3)nc2C)cc1C` [P-3142, 4-[4-[5-(4-ethoxy-3-methyl-phenyl)-4-methyl-1H-imidazol-2-yl]-4-ethyl-1-piperidyl]-6-methyl-7H-pyrrolo[2,3-d]pyrimidine], the IC50 was 1 to 10 µM on c-Kit kinase and under 10 µM in experiment [1].

With `CCC1(c2nc(C)c(-c3ccc4c(c3)OCO4)[nH]2)CCN(c2ncnc3[nH]c(C)cc23)CC1` [P-3143, 4-[4-[5-(1,3-benzodioxol-5-yl)-4-methyl-1H-imidazol-2-yl]-4-ethyl-1-piperidyl]-6-methyl-7H-pyrrolo[2,3-d]pyrimidine], the IC50 against c-Kit kinase is 1 to 10 µM; in experiment [1], under 10 µM.

With `CCC1(c2nc(C)c(-c3ccc4c(c3)OCCO4)[nH]2)CCN(c2ncnc3[nH]c(C)cc23)CC1` [P-3144, 4-[4-[5-(2,3-dihydro-1,4-benzodioxin-6-yl)-4-methyl-1H-imidazol-2-yl]-4-ethyl-1-piperidyl]-6-methyl-7H-pyrrolo[2,3-d]pyrimidine], the IC50 on c-Kit kinase is 1 to 10 µM; in experiment [1], under 10 µM.

The term IC50 denotes the point on the concentration scale where inhibition reaches its midpoint. A higher IC50 goes with lower potency.
